Here are results for two molecules from patent US20160158262A1, “METHODS OF TREATING IRRITABLE BOWEL SYNDROME” (CEDARS-SINAI MEDICAL CENTER, priority 2013, published 2016).

One data set deals with methane. To be noted: retrospective study; cited from earlier work.
In data set [1] the test system is non-constipated IBS subjects. To be noted: cited from earlier work.
Data set [2] deals with C-IBS subjects with methane. Description: Randomized double-blind trial in methane-positive C-IBS subjects: weekly symptom severity questionnaires (VAS 0-100). In kind it is in vivo, human. The procedure: Consecutive C-IBS subjects (18-65 yrs of age) (Rome III criteria) were recruited after applying exclusion criteria. All subjects presented for a lactulose breath test after a 12 hour fast. Only subjects with methane level >3 ppm on at least 1 breath sample were enrolled. Subjects then completed a stool diary, questionnaire (100 point VAS scale for bloating, abdominal pain, constipation, diarrhea and straining) and 2 week run in phase. […] Questionnaires were repeated weekly during treatment and for 4 weeks following completion of treatment. On the last week of follow up, the stool diary was repeated.
Consecutive patients (18-65 yrs of age) who fulfilled the Rome II criteria for C-IBS^2 were recruited. Patients were included if they reported <3 complete and spontaneous bowel movements (CSBMs) per week and had breath methane >3 ppm. […] Subjects were also excluded if they had taken an antibiotic or probiotic in the previous 30 days or were currently taking narcotics, proton pump inhibitors, tricyclic antidepressants, or medications known to alter intestinal motility. All subjects provided informed written consent and the study was approved by the institutional review board of all three study sites. Subjects who completed the study received a stipend. The study was registered with clinicaltrials.gov (NCT00945334).
The allocation was concealed. […] The pharmacy, investigators and patients were blinded.
(§1) Following completion of therapy, subjects were asked to continue with the weekly symptom questionnaires for an additional 4 weeks. During the final week of follow up, subjects were asked to repeat the 7-day stool diary followed by the final weekly questionnaire. Finally, subjects were asked to repeat a single fasting breath sample to examine for the presence of methane.
The baseline study questionnaire included subject demographics as well as symptom severity information. Follow-up questionnaires included a repeat evaluation of symptom severity. The following were assessed: abdominal pain, constipation, bloating, urgency, incomplete evacuation, straining and diarrhea. Severity was rated using a visual analog scale (VAS) from 0-100 mm (with 0=no symptom and 100=severe symptoms).
The primary outcome measure of this study was constipation severity as assessed on a VAS score from the first week following completion of the treatment phase. […] In addition, the eradication of methane was evaluated as a determinant of improvement at 4 weeks post therapy.
Data were expressed as mean±SD.
To examine the effect of each group over the duration of the study, a mixed longitudinal model was used. […] The models were analyzed with a single covariate (baseline diarrhea, constipation, abdominal pain, or bloating severity score). […]

The subject of another data set is breath methane. Description: Fasting breath sample for methane after therapy in the same trial. In kind it is in vivo, human. On the procedure: as §1
Subjects were asked to fast for 12 hours prior to a breath sample being obtained. Breath samples were collected via a Quintron dual bag collecting system (Quintron Instrument Company, Milwaukee, Wis.). The sampled gas was analyzed using a BreathTracker SC (Quintron Instrument Company, Milwaukee, Wis.). Output was reported as methane in parts per million (ppm) after correction for alveolar sample quality using breath CO2 concentration.
The primary outcome measure of this study was constipation severity as assessed on a VAS score from the first week following completion of the treatment phase. Secondary outcome measures included the severity of constipation, abdominal pain, urgency, bloating and straining over the entire study period. In addition, the eradication of methane was evaluated as a determinant of improvement at 4 weeks post therapy.

The test system of data set [3] is non-selected population of IBS. To be noted: cited from earlier work.
The conditions of data set [4]: in vivo. The procedure:
All subjects with a diagnosis of C-IBS presented for a fasting breath test after a 12 hour fast. Only subjects with methane level of >3 ppm on a single breath sample were enrolled. Subjects then completed a baseline study questionnaire and a baseline audiogram. […] Subjects were then asked to complete a daily stool diary for two weeks with weekly questionnaires for overall symptom severity. Subjects were eligible for randomization only if they were confirmed to have <3 CSBMs per week during stool diary.
The randomization scheme was set in blocks of 4 and each site received batches of drug in multiples of 4 to balance each study site into blocks. The allocation was concealed. The randomization was done by the drug company with a tracking list provided to the study site pharmacy in a concealed envelope. The pharmacy, investigators and patients were blinded. During the 14 days of treatment, subjects completed weekly symptom questionnaires (2 questionnaires over 2 weeks).
Baseline qualitative data and side effect rates were compared by Fisher's Exact Test. Quantitative baseline data was normal so were compared by t-Test. Data were expressed as mean±SD. The primary endpoint was also normally distributed and compared by t-test.

Setting [5] is: by week 2 of treatment, 100 point VAS, mean±SD.

Turning to `CO[C@H]1/C=C/O[C@@]2(C)Oc3c(C)c(O)c4c(O)c(c5c(nc6cc(C)ccn65)c4c3C2=O)NC(=O)/C(C)=C\C=C\[C@H](C)[C@H](O)[C@@H](C)[C@@H](O)[C@@H](C)[C@H](OC(C)=O)[C@@H]1C` [Rifaximin, rifaximin], the “benefit of single antibiotic” value in the data set on methane was “did not have a substantial benefit”. Further, the “duration of benefits following cessation of therapy” value in data set [1] (after 14 days of rifaximin therapy, global symptom rating, bloating, stool consistency, abdominal pain) was 3 months. For the same molecule, the “efficacy versus placebo in the treatment of IBS” value in data set [1] (multiple published randomized trials) is “superiority over placebo”.

Take neomycin: in the data set with methane, the “benefit of single antibiotic” value is reported as “did not have a substantial benefit”. Further, in data set [2] (setting [5]), the “bloating severity (VAS)” value was found to be 65.1±25.9 and the “constipation VAS score” value worked out at 57.9±25.0. The “difference in constipation severity between subjects with and without methane ≦3 ppm” value in data set [2] (final visit) is reported as “no significant difference”. Moreover, the “VAS score for constipation (primary endpoint)” value in data set [2] (one week after completion of 14 days of therapy, ITT, mean±SD) was determined as 61.2±24.1. Besides, the “reduction in methane from baseline (median drop)” value with breath methane (fasting breath sample, final visit vs baseline) was 7.5 ppm. In addition, in the data set with breath methane (final visit, of 15 subjects (rifaximin plus neomycin), out of 16 subjects (neomycin)), the “subjects with methane levels ≦3 ppm following treatment” value amounted to 11 subjects. In data set [3], the “improvement of IBS compared to placebo” value is given as “successful in improving IBS” and the “rate of normalizing the breath test” value is on record as “poor rate”. Further, in data set [4], the “Side effect: Abdominal pain” value is reported as 6 (38) n(%); the “Side effect: Bloating and distension” value is reported as 9 (56) n(%); the “Side effect: Constipation” value was 2 (13) n(%); the “Side effect: Diarrhea” value is 2 (13) n(%). Also, in data set [4], the “Side effect: Nausea” value is 10 (63) n(%) and the “Side effect: Urgency” value is 2 (13) n(%).
